Three molecules from patent US20200179528A9, “IMMUNE CELL-TARGETED PARTICLES” (Dana-Farber Cancer Institute, Inc., priority 2015, published 2020) can be followed below.

Data set [1] can be described thus: SD-208 solubility, loading and release from PEG-PLGA nanoparticles. Type of data set: physicochemical. As to the method:
PLGA-based nanoparticles were prepared using single-emulsion evaporation. PLGA (AP041, acid end-capped, 50:50, 10-15 kDa, Akina) was blended with Mal-PEG-PLGA (AI53, diblock copolymer, 50:50, 5-10 kDa, Akina) at 25% w/w. The polymers were dissolved in 1 mL dichloromethane (Sigma) and added to 6 mL of ice-cold 0.25% PVA (30,000-70,000 g/mol, Sigma) in 50 mM phosphate buffer, pH 5.8. The two phases were emulsified using a sonic probe (Qsonica Q700 with microtip, amplitude 10, 3 s power with 2 s break). […] The emulsion was stirred at room temperature for 3 h to evaporate the dichloromethane and afterwards purified by two wash-spin cycles in PBS at 20,000 g for 10 min. Nanoparticles s were assessed for size distribution using a Zetasizer Nano series ZS90, and drug encapsulation was determined by absorbance at 370 nm.
Encapsulation efficiency and drug release kinetics were analyzed by its absorbance maximum at 370 nm (FIG. 43A).

A further data set relates to CD8+ T cells. The experiment in a line: CD8+ T cell activation with anti-CD3/CD28 beads in presence of TGFβ1 (proliferation, granzyme B, IFNγ). The data set is classed as cell-based, mouse. As to the method: FIG. 34. […] Intracellular granzyme B expression was assessed by flow cytometry, n=3±SD. […] Fold change of interferon-γ (IFNγ) was measured by ELISA, n=4±SEM.
In vitro binding of nanoparticles was assessed after incubation of 250,000 enriched T cells with fluorescently (DiD, Life Technologies) labelled nanoparticles at different concentrations for 30 min at 37° C. After the incubation, T cells were washed 3 to 5 times in PBS and directly assessed by flow cytometry for DiD fluorescence. T cells isolated from OT-I Rag^−/− mice were activated by Dynabeads Mouse T-Activator CD3/CD28 (Thermo Scientific) at a ratio of 2:1 T cell to bead or by ova-expressing B16 melanoma cells at a ratio of 10:1 T cell to B16 cell. Carboxyfluorescein succinimidyl ester (CFSE, BioLegend) or cell trace violet (CTV, Thermo Scientific) was used to assess T cell proliferation; the labeling was carried out according to the manufacturer's recommendations. Mouse TGFβ1 was purchased from Cell Signaling Technologies, and T cell supernatants were analyzed by mouse IFN-γ ELISA MAX™ (BioLegend).

Data set [2] is described as follows: Loading of other small molecules into the nanoparticles and their release. Type of data set: physicochemical. Particulars: 10%, 20% or 40% small molecule. As to the method:
The formulation procedure used is the same as that used in FIG. 1. Release was measured by absorbance maximum at 280 nm, 300 nm, and 340 nm, respectively. 22.5 mg of PLGA and 7.5 mg of PLGA-PEG were used along with 3 mg (10%), 6 mg (20%), or 12 mg (40%) of small molecule. Note that the release profile can be delayed by loading less drug. Note that the encapsulation efficiency can increase (epacadostat) or decrease (resiquimod, ruxolitinib) by increasing initial loading amount.

[3] abbreviates: SD-208 released from nanoparticles versus free inhibitor in DMSO.

On to `Fc1ccc(Cl)cc1-c1nc(Nc2ccncc2)c2nccnc2n1` [SD-208], for which, in data set [1], the “amount entrapped in PEG-PLGA nanoparticles” value worked out at 20 μg/mg polymer and the water solubility entry is “poorly water soluble”. Also, the “release from the nanoparticles” value in data set [1] (PBS containing 10% serum) is on record as “released slowly from the nanoparticles over the course of weeks”. The “TGFβ-mediated inhibition of T cell proliferation” value with CD8+ T cells (SD-208 released from nanoparticles versus free SD-208, TGFβ1 2 ng/mL, 72 hours) is on record as “reversed in a comparable manner”. Further, in the data set with CD8+ T cells (setting [3]), the “granzyme B” value was “upregulated to a similar extent as free inhibitor” and the “interferon γ (IFNγ)” value is “upregulated to a similar extent as free inhibitor”.
In the case of `NS(=O)(=O)NCCNc1nonc1/C(=N/O)Nc1ccc(F)c(Br)c1` [epacadostat], in data set [2], the “change of encapsulation efficiency by increasing initial loading amount” value was “increase”.
The same measure, in the same setting: for `N#CC[C@H](C1CCCC1)n1cc(-c2ncnc3[nH]ccc23)cn1` [ruxolitinib] the value was “decrease”.
